Test results: patent publication US20100113530A1, “S1P LYASE INHIBITORS FOR THE TREATMENT OF CEREBRAL MALARIA” (priority 2008, published 2010)

Columns and labels:
P. berghei ANKA = assay: Cerebral malaria model: survival of infected mice; format: in vivo, C56B1/6 mice; settings: first dose one day before infection, FIG. 2
Procedure: (§1) FIGS. 1 and 2 show results of an experiment using three groups of 10 female C56B1/6 mice. The mice in all three groups were infected with 1 million parasites (P. berghei ANKA) i.p. in 500 μl of media. The first group was the control group. The S1P lyase inhibitor (E)-1-(4-((1R,2S,3R)-1,2,3,4-tetrahydroxybutyl)-1H-imidazol-2-yl)-ethanone oxime was administered i.p. (100 mg/kg) to the mice in the second group, and was administered by gavage (100 mg/kg) to the mice in the third group. The drug was administered daily, and was first administered one day before infection.
(§2) Twenty four hours after the drug was first administered, tail vein blood was taken from the mice, and flow cytometry analysis was used to assess the levels of B and T cells, using antibodies to CD3, CD4, CD8 and CD19. The animals were monitored daily for body weight, hematocrit, and parasitaemia, and twice daily for survival.

CD8+ T cells = assay: Cerebral malaria model: flow cytometry of tail vein blood for B and T cell levels; format: in vivo, C56B1/6 mice; settings: first dose one day before infection, blood taken 24 h after first dose, FIG. 1
Procedure: as §1, §2

## C/C(=N\O)c1nc([C@@H](O)[C@H](O)[C@H](O)CO)c[nH]1 [(E)-1-(4-((1R,2S,3R)-1,2,3,4-tetrahydroxybutyl)-1H-imidazol-2-yl)-ethanone oxime]
P. berghei ANKA; gavage 100 mg/kg daily
  survival as compared to control group: lived significantly longer
P. berghei ANKA; i.p. 100 mg/kg daily
  survival as compared to control group: lived significantly longer
CD8+ T cells; gavage 100 mg/kg daily
  CD8+ T cells as compared to untreated control group: decreased CD8+ T cells
CD8+ T cells; i.p. 100 mg/kg daily
  CD8+ T cells as compared to untreated control group: decreased CD8+ T cells
